# Laboratory results reported in publication PMC9229843, “Cancer-Related Somatic Mutations in Transmembrane Helices Alter Adenosine A1 Receptor Pharmacology” (Molecules, 2022).
# Changes are numbered by the printed parent chain. “Also recorded” adds a separate entry of the source.
# Key:
# Assay in all cases: yeast liquid growth assay
# Type in all cases: cell-based
# [1] = target: T1, hA1AR D55G^2.50 (Homo sapiens, UniProt P30542, D55G); details: result in words
# T1 construct: expressed in transfected cells; host or cells: S. cerevisiae MMY24
# T1 sequence (P30542 1-326 D55G): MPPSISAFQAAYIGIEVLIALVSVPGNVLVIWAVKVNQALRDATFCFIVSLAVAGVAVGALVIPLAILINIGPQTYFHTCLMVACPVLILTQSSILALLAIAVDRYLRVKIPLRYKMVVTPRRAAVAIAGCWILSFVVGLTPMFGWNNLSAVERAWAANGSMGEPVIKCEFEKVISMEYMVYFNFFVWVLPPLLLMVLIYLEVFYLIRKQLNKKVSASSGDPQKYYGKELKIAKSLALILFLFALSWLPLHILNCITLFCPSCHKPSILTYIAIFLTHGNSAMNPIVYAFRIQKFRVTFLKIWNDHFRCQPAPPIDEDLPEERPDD
# Protocol: (§1) The plasmids, pDT-PGK_hA1AR, containing either wild type or mutated hA1AR were transformed into a MMY24 S. cerevisiae strain following the lithium acetate procedure.
# (§2) In order to characterize the mutant hA1ARs, liquid growth assays in 96-well plates were performed to obtain concentration–growth curves as previously described. […] The overnight cultures were then diluted to 40,000 cells/mL (OD600 ≈ 0.02) in a selective medium without uracil, leucine, and histidine (YNB-ULH). For the determination of constitutive activity, 50 μL of yeast cells and 150 μL of YNB-ULH medium containing different concentrations of 3-AT and 0.8 IU/mL ADA were then added to each well. To obtain concentration–growth curves, 2 μL of various concentrations of ligands, 50 μL of yeast cells, and 150 μL of YNB-ULH medium containing 7 mM 3-AT and 0.8 IU/mL ADA were then added to each well. After incubation at 30 °C for 35 h in a Genios plate reader (TECAN, Zürich, Switzerland) with shaking for 1 min at 300 rpm every 10 min, the optical density was measured at a wavelength of 595 nm, which represented the level of yeast cell growth.
# (§3) All experimental data were analyzed by GraphPad Prism 7.0 or 8.0 (GraphPad Software Inc., San Diego, CA, USA). Data from yeast liquid growth and [^35S]GTPγS binding assays were analyzed by non-linear regression using “log (agonist) vs. response (three parameters)” or “log (inhibitor) vs. response (three parameters)” to obtain potency (EC50), inhibitory potency (IC50), and efficacy (Emax or Imax) values. The radioligand displacement curves were obtained from a statistically preferred one-site or two-site binding model. pKi values were calculated from pIC50 values using the Cheng–Prusoff equation, where KD values were obtained from the homologous competition assays from this study and calculated by non-linear regression using “one site–homologous” [62].
# [2] = target: T2, hA1AR A20T^1.43 (Homo sapiens, UniProt P30542, A20T); details: ratio over basal activity of wild type hA1AR, 7 mM 3-AT
# T2 construct: expressed in transfected cells; host or cells: S. cerevisiae MMY24
# T2 sequence (P30542 1-326 A20T): T1 sequence (P30542 1-326 D55G) with A20T, G55D
# Protocol: as §1, §2, §3
# [3] = target: T3, hA1AR G279S^7.44 (Homo sapiens, UniProt P30542, G279S); details: ratio over basal activity of wild type hA1AR, 7 mM 3-AT
# T3 sequence (P30542 1-326 G279S): T1 sequence (P30542 1-326 D55G) with G55D, G279S
# Protocol: as §1, §2, §3
# [4] = target: T4, wild type hA1AR (Homo sapiens, UniProt P30542); details: ratio over basal activity of wild type hA1AR, 7 mM 3-AT
# T4 sequence (P30542 1-326): T1 sequence (P30542 1-326 D55G) with G55D
# Protocol: as §1, §2, §3
# [5] = target: T5, hA1AR S267I^7.32 (Homo sapiens, UniProt P30542, S267I); details: result in words
# T5 construct: expressed in transfected cells; host or cells: S. cerevisiae MMY24
# T5 sequence (P30542 1-326 S267I): T1 sequence (P30542 1-326 D55G) with G55D, S267I
# Protocol: as §1, §2, §3
structure (smiles),measurement,setting,value
"OC[C@H]1O[C@@H](n2cnc3c(NC4CCCC4)ncnc32)[C@H](O)[C@@H]1O [CPA, N^6-cyclopentyladenosine]",agonist-induced receptor activation,[1],could not be activated
same,Emax,[2],4.23 ± 0.60
same,Emax,[3],4.96 ± 0.38
same,Emax,[4],4.83 ± 0.30
same,agonist-induced receptor activation,[5],could not be activated; also recorded: complete loss of activation
